Tests used:
Assay in all cases: relative viability (nuclei count vs DMSO), 5 days (fraction); higher = more cells survive
Axitinib + Luminespib = compound: CNC(=O)c1ccccc1Sc1ccc2c(/C=C/c3ccccn3)n[nH]c2c1 [Axitinib] + CCNC(=O)c1noc(-c2cc(C(C)C)c(O)cc2O)c1-c1ccc(CN2CCOCC2)cc1 [Luminespib] (partner 0.01 µM)
How it was run: (§1)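 Medians of duplicate plates are given as relative viability. That measure is the nuclei count in treated wells divided by the count in vehicle wells. Counts were taken on 4× images of lung cancer cell lines in 1536-well plates, 5 days after pin-tool dosing the day after seeding with one drug alone or a fixed anchor-drug dose plus five library-drug doses (not always all listed) in √10 steps.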

Bemcentinib + Luminespib = compound: Nc1nc(Nc2ccc3c(c2)CC[C@@H](N2CCCC2)CC3)nn1-c1cc2c(nn1)-c1ccccc1CCC2 [Bemcentinib] + CCNC(=O)c1noc(-c2cc(C(C)C)c(O)cc2O)c1-c1ccc(CN2CCOCC2)cc1 [Luminespib] (partner 0.01 µM)
How it was run: as §1

Bemcentinib + Crizotinib = compound: Nc1nc(Nc2ccc3c(c2)CC[C@@H](N2CCCC2)CC3)nn1-c1cc2c(nn1)-c1ccccc1CCC2 [Bemcentinib] + C[C@@H](Oc1cc(-c2cnn(C3CCNCC3)c2)cnc1N)c1c(Cl)ccc(F)c1Cl [Crizotinib] (partner 1 µM)
How it was run: as §1

Bemcentinib + Phenformin = compound: Nc1nc(Nc2ccc3c(c2)CC[C@@H](N2CCCC2)CC3)nn1-c1cc2c(nn1)-c1ccccc1CCC2 [Bemcentinib] + N=C(N)NC(=N)NCCc1ccccc1 [Phenformin] (partner 250 µM)
How it was run: as §1

Cell Line	relative viability (Axitinib + Luminespib; first compound 0.005 µM)	relative viability (Axitinib + Luminespib; first compound 0.01581 µM)	relative viability (Axitinib + Luminespib; first compound 0.05 µM)	relative viability (Axitinib + Luminespib; first compound 0.1581 µM)	relative viability (Axitinib + Luminespib; first compound 0.5 µM)	relative viability (Bemcentinib + Luminespib; first compound 0.04 µM)	relative viability (Bemcentinib + Luminespib; first compound 0.1265 µM)	relative viability (Bemcentinib + Luminespib; first compound 0.4 µM)	relative viability (Bemcentinib + Luminespib; first compound 1.265 µM)	relative viability (Bemcentinib + Luminespib; first compound 4 µM)	relative viability (Bemcentinib + Crizotinib; first compound 0.04 µM)	relative viability (Bemcentinib + Crizotinib; first compound 0.1265 µM)	relative viability (Bemcentinib + Crizotinib; first compound 0.4 µM)	relative viability (Bemcentinib + Crizotinib; first compound 1.265 µM)	relative viability (Bemcentinib + Crizotinib; first compound 4 µM)	relative viability (Bemcentinib + Phenformin; first compound 0.04 µM)	relative viability (Bemcentinib + Phenformin; first compound 0.1265 µM)	relative viability (Bemcentinib + Phenformin; first compound 0.4 µM)	relative viability (Bemcentinib + Phenformin; first compound 1.265 µM)	relative viability (Bemcentinib + Phenformin; first compound 4 µM)
RERF-LC-KJ	1.23	1.2	1.17	1.21	1.42	1.45	1.23	1.24	1.17	1.1	0.919	0.856	0.78	0.896	0.841	0.42	0.424	0.412	0.391	0.334
NCI-H1734	0.19	0.221	0.212	0.2	0.191	0.178	0.192	0.219	0.218	0.188	0.686	0.691	0.669	0.667	0.698	0.406	0.384	0.42	0.434	0.372
NCI-H2087	0.162	0.202	0.177	0.176	0.172	0.142	0.15	0.187	0.219	0.185	0.827	0.982	0.942	0.999	1.05	0.435	0.481	0.52	0.492	0.487
EKVX	0.879	0.86	0.828	0.878	0.965	0.825	0.878	0.923	0.838	0.863	0.973	0.981	1.06	1.03	0.986	0.256	0.215	0.239	0.277	0.237
NCI-H1915	0.787	0.795	0.902	0.84	0.861	0.861	0.974	0.9	0.899	0.89	0.957	1.03	0.911	0.96	0.989	0.376	0.375	0.372	0.383	0.353
NCI-H3122	0.0794	0.103	0.092	0.0739	0.0873	–	0.0968	0.102	0.0892	0.0707	0.257	0.157	0.262	0.31	0.293	–	0.412	0.366	0.358	0.381
BEN	0.486	0.309	0.509	0.372	0.226	0.178	0.395	0.563	0.199	0.236	0.936	1.16	0.935	0.845	0.775	0.242	0.289	0.269	0.255	0.295
201T	1.04	1.04	1.09	0.989	1.04	1.07	1.05	1.14	1.07	1.14	1.05	1.03	0.983	1.05	1.07	0.417	0.504	0.48	0.454	0.455
NCI-H1792	0.555	0.34	0.325	0.417	0.418	0.578	0.482	0.64	0.489	0.486	1.02	1.2	1.26	0.965	0.957	0.293	0.293	0.326	0.193	0.248
NCI-H1666	0.974	0.975	1.01	1.03	0.957	1.05	1.07	0.993	0.956	0.955	1.01	0.889	0.963	0.861	0.89	0.572	0.675	0.564	0.564	0.635
NCI-H1563	0.401	0.594	0.487	0.549	0.446	0.507	0.538	0.475	0.55	0.535	0.79	0.759	0.81	0.849	0.89	0.671	0.742	0.671	0.671	0.618
NCI-H1993	1.04	0.918	0.949	0.881	0.823	0.905	0.768	0.999	1.13	0.899	0.913	0.966	0.876	1.03	1.1	0.465	0.501	0.528	0.505	0.487
CAL-12T	0.96	0.302	0.216	0.672	0.364	0.273	0.462	0.388	0.363	0.453	0.394	0.767	0.679	0.62	0.525	0.492	0.632	0.611	0.579	0.601
NCI-H460	0.0293	0.0335	0.0318	0.0323	0.0338	0.0301	0.0417	0.0326	0.0332	0.0269	0.976	0.994	0.937	1.04	0.964	0.552	0.7	0.522	0.607	0.568
NCI-H2170	0.718	0.639	0.743	0.647	0.688	0.568	0.923	0.649	0.809	0.869	1.36	1.36	1.21	1.38	1.31	0.402	0.429	0.456	0.389	0.435
LC-2-ad	1.01	1.13	1.04	0.897	0.956	0.997	1.11	1.03	0.935	0.905	0.467	0.482	0.416	0.411	0.452	0.535	0.601	0.592	0.602	0.588

Source: the supplement of paper PMC10307832
